{
  "source": "patent US20230073368A1",
  "about": "“THERAPY OF RAS-DEPENDENT CANCERS” (Turun Yliopisto, priority 2020, published 2023)",
  "test_system": "PANC-1 cells",
  "assay": "Proliferation assay of SHANK3 silenced PANC-1 cells treated with ERK and MEK inhibitors",
  "format": "cell-based, human",
  "conditions": "dose-dependent, 7.8 nM-8 μM gradient",
  "protocol": "Proliferation Assay of SHANK3 Silenced PANC-1 Cells Treated with ERK and MEK Inhibitors\nCells were seeded on a 96-well plate (2000-5000 cells/well) a day before transfection and silenced the next day when cell confluence was approximately 30%. Next day after silencing, medium was changed to full medium containing DMSO (control), Trametinib, Selumetinib (ADZ6244) or selective ERK1/2 inhibitor (SCH772984) in dose-dependent manner (concentration gradient: 0, 7.8 nM, 15.5 nM 31.3 nM 62.5 nM, 125 nM, 250 nM, 500 nM, 1 μM, 2 μM, 4 μM and 8 μM). Proliferation was measured using IncuCyte S3 as described above.",
  "data": [
    {"smiles": "O=C(Nc1ccc2[nH]nc(-c3ccncc3)c2c1)[C@@H]1CCN(CC(=O)N2CCN(c3ccc(-c4ncccn4)cc3)CC2)C1", "note": "[SCH772984]", "values": [
      {"measurement": "rescue of cell viability lost by SHANK3-silencing", "result": "abolished a loss of cell viability induced by SHANK3-silencing"}
    ]}
  ]
}
